We go through 2 molecules from US11439656B2, “Pharmaceutical compounds and uses thereof” (Regents of the University of Minnesota, priority 2018, dated 2022).

Each structure is given as a SMILES string. Some results are limits rather than exact numbers.

Data set [1] has as its system p53 tumor suppressor protein. The data set can be described thus: Western blot of p53 and p21Cip1 induction in SH-SY5Y cells. It counts as cell-based, human. How it is done:
(§1) Cell culture, cell extract preparation, SDS-PAGE, and western blot: SH-SY5Y pediatric neuroblastoma cells were purchased from ATCC. Pediatric glioblastoma multiforme cell line CHLA-200 was a generous gift from Dr. C. Patrick Reynolds (Texas Tech). Cancer cells were cultured in RPMI-1640 supplemented with 10% fetal bovine serum (FBS) and 1% Penicillin-Streptomycin. Cells were lysed with RIPA lysis buffer (Millipore) containing protease inhibitor cocktails (Roche). The protein concentration was measured by the Lowry method. Equal amounts of protein were subjected to SDS-PAGE and then transferred to a PVDF membrane. The proteins of interest were then probed with their respective antibodies.
(§2) SH-SY5Y cells were treated with 4Ei-10. SH-SY5Y is a neuroblastorna cell line that contains wild-type p53. 4Ei-10 is a small molecule translation inhibitor. It is a prodrug that is converted to N7-chlorophenoxyethyl guanosine monophosphate by the enzyme hHINT1 in the cell as shown in FIG. 1A. N7-chlorophenoxyethyl guanosine monophosphate competes with the cap structure for binding to eIf-4E, preventing the recruitment of the 5′ mRNA cap structure to the eIF-4F complex. […] A time-course study was then performed by treating SH-SY5Y cells with 4Ei-10 at a concentration of 100 μM.
To determine if the increase of the p53 tumor suppressor protein caused by 4Ei-10 is associated with enhanced p53 tumor suppressor protein synthesis, SH-SY5Y cells were treated with 4Ei-10 or 4Ei-10 plus cycloheximide, a protein synthesis (elongation) inhibitor.

Data set [2] has as its system SH-SY5Y cells. The data set can be described thus: Western blot of PARP cleavage (apoptosis) in SH-SY5Y cells. It counts as cell-based. How it is done: as §1
Since the p53 tumor suppressor protein is also a stimulator of cell apoptosis, the levels of PARP, a substrate of caspase 3, were examined in SH-SY5Y cells treated with 4Ei-10.

Data set [3] has as its system SH-SY5Y cells. The data set can be described thus: MTT cell viability assay. It counts as cell-based. To be noted: different concentrations of 4Ei-10. On the procedure:
MTT cell viability assay: Cells were plated on a 24-well plate at 20,000 cells/well. After treatment with different reagents, the ratio of viable cells in each well was determined using a CellTiter Cell Proliferation kit (Promega) following the manufacturer's instructions. MTS solution was placed in each well at a ratio of 20 μL/100 μL of cell culture medium and incubated in a cell culture incubator for 2-3 hours. Absorbance was then measured at the wavelength of 492 nm with a microplate reader.
as §2

In data set [4] the test system is SH-SY5Y cells. As to the kind of experiment: Flow cytometry assay of cell cycle distribution. It counts as cell-based. How it is done:
Flow Cytometry Assay of Cell Cycle Distribution: Cells were seeded onto six well plates and were grown to sub-confluency. After treatment with or without 4Ei-10, cells were gently removed from the plates, washed once with cold PBS, and fixed with cold 70% ethanol. Cells were then stained with propidium iodide and subjected to flow cytometry (Becton Dickinson FACScalibur). The cell population at each phase was analyzed by the Modfit 2 software.
Since the p53 tumor suppressor protein is known to induce cell cycle arrest through induction of p21Cip1, a cell cycle distribution analysis was performed after treating SH-SY5Y cells with 4Ei-10.

A further data set relates to IRES of p53 mRNA. The data set can be described thus: Dual luciferase assay of p53 IRES activity (pR5UTRF reporter). It counts as cell-based. The conditions noted are these: SH-SY5Y cells transfected with pR5UTRF, compared to untreated control cells. On the procedure: Dual luciferase assays: Cells were lysed with passive lysis buffer (Promega). The dual-luciferase reporter assay (Promega) was then performed according to the manufacturer's instructions. Firefly and Renilla luciferase activities were determined with a Synergy 2 (BioTek) microplate reader.
To determine if the IRES activity of p53 mRNA increases during 4Ei-10 treatment when cap-dependent protein translation is halted by 4Ei-10, a bicistronic dual-luciferase reporter vector pR5UTRF, which contains the IRES sequence (−131 nt before 1st AUG of p53 ORF, accession number, NM_00546.4) of the p53 mRNA, was used to transfect SH-SY5Y cells. The IRES activity of p53 mRNA was then measured as the ratio of firefly (Fluc, controlled by the IRES sequence of p53 mRNA) to Renilla luciferase (Rluc) activity, Rluc is controlled by eIF4E and cap-dependent protein translational machinery and was used as an internal control for Fluc.

Data set [5] deals with SH-SY5Y cells. The data set can be described thus: Cell Death ELISA analysis. It counts as cell-based. To be noted: data not shown.
The subject of the next data set is CHLA-200 cells. The data set can be described thus: Western blot of p53, p21Cip1 and PARP cleavage in CHLA-200 cells. It counts as cell-based. How it is done:
as §1
The ability of 4Ei-10 to induce the p53 tumor suppressor protein in other type of cell lines was also examined. CHLA-200 is a children's glioblastoma multiforme cell line with wild-type p53. CHLA-200 cells were treated with 100 μM 4Ei-10.

Data set [6] deals with SH-SY5Y cells. As to the kind of experiment: Indirect immunofluorescence of phosphorylated H2A.X foci (DNA double strand breaks). It counts as cell-based. The conditions noted are these: nucleus.
Experimental: Indirect immunofluorescence: Chamber slides (8 wells, Lab-Tek) were treated with Poly-L-Lysine (Sigma) prior to seeding with SH-SY5Y cells at 8000 cells/well. Sub-confluent cells were treated with different reagents. After treatment, cells were briefly fixed in 3% paraformaldehyde solution and were then permeablized with 0.2% Triton X-100 in Tris-buffered saline. After permeabilization, cells were incubated with a phosphor-Histone H2A.X antibody (Millipore) and then with a Texas-Red conjugated secondary antibody (Jackson Laboratories) followed by DAPI staining. Images were recorded using a Nikon Eclipse TE2000-E confocal microscope at 60× magnification.
Foci formation of phosphorylated H2A.X, which recognizes DNA double strand breaks, was examined.
The target in the next data set is T1, eIF4E and eIF4G (Homo sapiens, UniProt P06730).
T1 construct: endogenous in cells; host or cells: SH-SY5Y
As to the kind of experiment: m7-GTP Sepharose bead pull-down of eIF4E and eIF4G. It counts as cell-based. The conditions noted are these: SH-SY5Y cells, 100 μM, 24 hours. On the procedure: SH-SY5Y cells were treated with 100 μM 4Ei-10 for 24 hours. After treatment, cells were lysed and equal amounts of proteins were incubated with m^7-GTP Sepharose beads. After incubation, beads were washed and mixed with SDS-PAGE loading buffer. The eluted proteins were then subjected to SDS-PAGE and transferred to a PVDF membrane. Bound eIF4G and eIF-4E were then detected with total eIF4E and total β-actin as input controls.

In another data set the test system is MCF-7 cells. As to the kind of experiment: Western blot of p53 and PARP cleavage in MCF-7 cells. It counts as cell-based. To be noted: 4Ei-10 alone. On the procedure: Sub-confluent MCF-7 cells were treated with either 100 μM 4Ei-10, 50 μM 4EGI-1, or both for 24 hours. After treatment, both floating and attached cells were collected and lysed. Equal amounts of protein were subjected to SDS-PAGE and transferred to a PVDF membrane. p53, PARP, cleaved PARP, and β-actin were detected with their respective antibodies.

Data set [7] relates to cell lines of mantle cell lymphoma (MCL). To be noted: cited from earlier work.

T1 sequence (P06730 2-217 limits assumed): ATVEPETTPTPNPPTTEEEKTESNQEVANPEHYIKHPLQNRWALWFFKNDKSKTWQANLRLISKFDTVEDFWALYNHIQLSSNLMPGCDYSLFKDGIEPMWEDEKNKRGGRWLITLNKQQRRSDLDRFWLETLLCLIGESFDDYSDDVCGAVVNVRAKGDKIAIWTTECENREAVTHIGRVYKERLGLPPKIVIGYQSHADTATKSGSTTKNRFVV

In the case of `O=C(O)C(Cc1ccccc1[N+](=O)[O-])=NNc1nc(-c2ccc(Cl)c(Cl)c2)cs1` (mixture of isomers) [4EGI-1, reference compound], in [1], the “induction of the p53 tumor suppressor protein, comparison of single agents and combination” value is given as “stronger ability”. Further, the “induction of cellular apoptosis, comparison of single agents and combination” value with SH-SY5Y cells [2] is reported as “stronger ability”.
Turning to `CSCCOP(=O)(NCCc1c[nH]c2ccccc12)OC[C@H]1O[C@@H](n2c[n+](CCOc3ccc(Cl)cc3)c3c(=O)[nH]c(N)nc32)C(O)C1O` (stereo partly drawn) [4Ei-10], in the data set on SH-SY5Y cells [3], the “cell viability or cell proliferation” value is recorded as “decrease in cell viability or cell proliferation in a concentration-dependent manner”. In data set [1] (100 μM, time-course), the “expression of p53 downstream target p21Cip1” value was “increased expression” and the “p53 tumor suppressor protein accumulation” value is on record as “induced p53 tumor suppressor protein accumulation”. The “p53 tumor suppressor protein accumulation with or without cycloheximide” value in [1] (protein synthesis inhibitor experiment) is listed as “induction of the p53 tumor suppressor protein”. In the data set with SH-SY5Y cells [4], the “cell numbers at the G1 phase” value is recorded as “substantial increase” and the “cell numbers at the S phase” value is “dramatic decrease”. Besides, in the data set with SH-SY5Y cells [4] (compared to control cells), the “G1S ratio, an indicator of G1 cell cycle arrest” value is on record as “two-fold increase”. The “IRES activity of p53 mRNA (ratio of Fluc/Rluc)” value in the data set on IRES of p53 mRNA is “significantly increased”. For the same molecule, in the data set with SH-SY5Y cells [2] (100 μM), the “cleaved PARP (cellular apoptosis)” value is recorded as “increase of cleaved PARP” and the “strength of apoptosis induced” value was “relatively weak”. The “treatment time after which apoptosis could be seen” value in the data set on SH-SY5Y cells [2] (100 μM, prolonged treatment) was at least 24 h. Moreover, the “cell death or apoptosis” value in the data set with SH-SY5Y cells [5] is given as “enhanced cell death or apoptosis”. Moreover, in the data set on CHLA-200 cells (CHLA200 cells), the cell apoptosis result is “increased cell apoptosis” and the “induction of the p53 tumor suppressor protein” value is listed as “Induction of the p53 tumor suppressor protein was observed”. Moreover, in the data set on CHLA-200 cells (CHLA-200 cells, 100 μM), the “PARP cleavage (apoptosis)” value was “induced” and the “p21Cip1 induction (cell cycle arrest)” value is listed as “induced”. Besides, in the data set on SH-SY5Y cells [6], the “foci formation of phosphorylated H2A.X (DNA double strand breaks)” value is “not seen”. In addition, on eIF4E and eIF4G, the “eIF4E bound to the m7-GTP Sepharose beads” value is on record as “decreased” and the “eIF4G bound to the m7-GTP Sepharose beads” value is given as “decreased”. In addition, in the data set on MCF-7 cells, the cell apoptosis result is reported as “increased cell apoptosis” and the “induction of the p53 tumor suppressor protein” value is reported as “Induction of the p53 tumor suppressor protein was observed”. Further, in data set [7], the c-Myc expression entry is listed as “suppression of c-Myc expression” and the “expression of p27” value is listed as “induce the expression of p27”. Moreover, in data set [7] (multiple cell lines of mantle cell lymphoma), the “cell proliferation and cell survival” value was “inhibits cell proliferation and cell survival”. The chemosensitization entry in [7] (to doxorubicin, dexamethasone, and ibrutinib) is listed as “enhanced chemosensitization”.
